This is an account of results in patent US7858621B2 (Amorepacific Corporation, priority 2006, dated 2010).

T1 sequence (O35433 whole entry): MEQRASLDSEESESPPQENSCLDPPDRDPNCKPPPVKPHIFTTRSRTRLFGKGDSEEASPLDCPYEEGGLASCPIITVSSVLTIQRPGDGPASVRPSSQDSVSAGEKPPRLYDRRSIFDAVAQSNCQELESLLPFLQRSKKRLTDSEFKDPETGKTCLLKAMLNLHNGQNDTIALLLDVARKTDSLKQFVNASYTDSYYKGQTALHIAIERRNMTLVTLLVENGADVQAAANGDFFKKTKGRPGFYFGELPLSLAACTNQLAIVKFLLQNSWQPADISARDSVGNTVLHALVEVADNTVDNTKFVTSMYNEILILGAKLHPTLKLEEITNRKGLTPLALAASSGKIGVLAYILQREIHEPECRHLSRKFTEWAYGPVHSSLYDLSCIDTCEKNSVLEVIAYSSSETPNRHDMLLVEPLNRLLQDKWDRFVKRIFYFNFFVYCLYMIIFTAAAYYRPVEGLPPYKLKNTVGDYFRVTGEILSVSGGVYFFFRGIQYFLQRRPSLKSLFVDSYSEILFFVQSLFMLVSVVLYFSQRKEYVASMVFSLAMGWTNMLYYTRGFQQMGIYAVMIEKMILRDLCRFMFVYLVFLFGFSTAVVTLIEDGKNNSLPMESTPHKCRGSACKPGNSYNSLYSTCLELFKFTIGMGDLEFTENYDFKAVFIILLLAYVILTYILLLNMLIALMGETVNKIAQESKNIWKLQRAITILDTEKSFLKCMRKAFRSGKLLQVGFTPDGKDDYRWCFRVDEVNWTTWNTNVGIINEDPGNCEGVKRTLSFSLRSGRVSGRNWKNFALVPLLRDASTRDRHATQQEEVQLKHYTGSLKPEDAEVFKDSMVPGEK

This assay addresses T1, vanilloid receptor (Rattus norvegicus, UniProt O35433).
T1 construct: DRG nerve cells from the primary culture of 2 days were equilibrated; endogenous in cells; host or cells: primary culture of dorsal root ganglion neurons from neonatal SD rats
Put plainly: 45Ca influx test in cultured neonatal rat DRG neurons, inhibition of capsaicin response. It is filed as cell-based. As to conditions: neonatal rat DRG neurons, capsaicin 0.5 μM, 45Ca influx; read-out: Antagonist Calcium Uptake Test (IC50). On the procedure: 1) Separation of Spinal Dorsal Root Ganglia (DRG) in Newborn Rats and Primary Culture Thereof
Neonatal (2-3 day old or younger than 2-3 day old) SD rats were put in ice for 5 minutes to anesthetize and disinfected with 70% ethanol. […] The DRG were incubated sequentially at 37° C. for 30 mins in 200 U/ml collagenase and 2.5 mg/ml trypsin, separately. The ganglia were washed twice with DME/F12 medium supplemented with 10% horse serum, triturated through a fire-polished Pasteur pipette, filtered through Nitex 80 membrane to obtain single cell suspension and the suspension was washed once more. This was subjected to centrifugation, then resuspended in cell culture medium at certain level of cell density. As the cell culture medium, DME/F12 medium supplemented with 10% horse serum was diluted with identical medium conditioned by C6 glioma cells 2 days on a confluent monolayer (1:1), and NGF (Nerve Growth Factor) was added to adjust 200 ng/ml as final concentration. After the cells were grown 2 days in medium where cytosine arabinoside (Ara-C, 100 μM) was added to kill dividing nonneuronal cells, medium was changed to one without Ara-C. The resuspended cells were plated at a density of 1500-2000 neurons/well onto Terasaki plates previously coated with 10 μg/ml poly-D-ornithine.
2) ^45Ca Influx Experiments
DRG nerve cells from the primary culture of 2 days were equilibrated by washing 4 times with HEPES (10 mM, pH 7.4)-buffered Ca^2+, Mg^2+-free HBSS (H-HBSS). The solution in each well was removed from the individual well. Medium containing the test compound plus capsaicin (final concentration 0.5 μM) and ^45Ca (final concentration 10 μCi/ml) in H-HBSS was added to each well and incubated at room temperature for 10 mins. Terasaki plates were washed five times with H-HBSS and dried at room temperature. To each well, 0.3% SDS (10 μl) was added to elute ^45Ca. After the addition of scintillation cocktail of into each well, the amount of ^45Ca influx into neuron was measured by counting radioactivity.
Consider `CS(=O)(=O)Nc1ccc(CNC(=O)/C=C/c2ccc(C(F)(F)F)nc2Oc2cccnc2)cc1F` [Example 81, N-(3-Fluoro-4-methanesulfonylamino-benzyl)-3-[2-(pyridin-3-yloxy)-6-trifluoromethyl-pyridin-3-yl]-acrylamide], for which the IC50 (in general, the concentration at which inhibition is half-maximal) stood at 11900 nM.
Regarding `C#Cc1cc(CNC(=O)/C=C/c2ccc(C(F)(F)F)nc2Oc2ccc(F)cc2)cc(F)c1NS(C)(=O)=O` [Example 82, N-(3-Ethynyl-5-fluoro-4-methanesulfonylamino-benzyl)-3-[2-(4-fluoro-phenoxy)-6-trifluoromethyl-pyridin-3-yl]-acrylamide], the IC50 stood at 600 nM.
Turning to `C#Cc1cc(CNC(=O)/C=C/c2ccc(C(F)(F)F)nc2OCC(F)(F)F)cc(F)c1NS(C)(=O)=O` [Example 84, N-(3-Ethynyl-5-fluoro-4-methansulfonylamino-benzyl)-3-[2-(2,2,2-trifluoro-ethoxy)-6-trifluoromethyl-pyridin-3-yl]-acrylamide], the IC50 stood at 240 nM.
The same measure for `C#Cc1cc(CNC(=O)/C=C/c2ccc(C(F)(F)F)nc2N2CCC(OC)C2)cc(F)c1NS(C)(=O)=O` (stereo not drawn) [Example 85]: 180 nM; for `CCCCOc1nc(C(F)(F)F)ccc1CCC(=O)NCc1ccc(NS(C)(=O)=O)c(F)c1` [Example 86, 3-(2-Butoxy-6-trifluoromethyl-pyridin-3-yl)-N-(3-fluoro-4-methanesulfonylamino-benzyl)-propionamide]: 1200 nM; for `CS(=O)(=O)Nc1ccc(CNC(=O)/C=C/c2ccc(C(F)(F)F)nc2OCC(F)(F)F)cc1F` [Example 87, N-(3-Fluoro-4-methanesulfonylamino-benzyl)-3-[2-(2,2,2-trifluoro-ethoxy)-6-trifluoromethyl-pyridin-3-yl]-acrylamide]: 2200 nM.
To `CCCCNc1nc(C(F)(F)F)ccc1/C=C/C(=O)NCc1ccc(NS(C)(=O)=O)c(F)c1` [Example 88, 3-(2-Butylamino-6-trifluoromethyl-pyridin-3-yl)-N-(3-fluoro-4-methanesulfonylamino-benzyl)-acrylamide] belongs 400 nM; to `CS(=O)(=O)Nc1ccc(CNC(=O)/C=C/c2ccc(C(F)(F)F)nc2NC2CCCC2)cc1F` [Example 89, 3-(2-Cyclopentylamino-6-trifluoromethyl-pyridin-3-yl)-N-(3-fluoro-4-methanesulfonylamino-benzyl)-acrylamide], 280 nM; to `COC1CCN(c2nc(C(F)(F)F)ccc2C=CC(=O)NCc2ccc(NS(C)(=O)=O)c(F)c2)C1` (stereo not drawn) [Example 90, N-(3-Fluoro-4-methanesulfonylamino-benzyl)-3-[2-(3-methoxy-pyrrolidin-1-yl)-6-trifluoromethyl-pyridin-3-yl]-acrylamide], 410 nM.
The same measure for `C#Cc1cc(CNC(=O)CCc2ccc(C(F)(F)F)nc2N2CCCC2)cc(F)c1NS(C)(=O)=O` [Example 91, N-(3-Ethynyl-5-fluoro-4-methanesulfonylamino-benzyl)-3-(2-pyrrolidin-1-yl-6-trifluoromethyl-pyridin-3-yl)-propionamide]: 580 nM.
Take `C#Cc1cc(CNC(=O)/C=C/c2ccc(C(F)(F)F)nc2OC2CCCC2)cc(F)c1NS(C)(=O)=O` [Example 92, 3-(2-Cyclopentoxy-6-trifluoromethyl-pyridin-3-yl)-N-(3-ethynyl-5-fluoro-4-methanesulfonylamino-benzyl)-acrylamide]: the IC50 is 520 nM.
Turning to `C#Cc1cc(CNC(=O)/C=C/c2ccc(C(F)(F)F)nc2OCC2CC2)cc(F)c1NS(C)(=O)=O` [Example 93, 3-(2-Cyclopropylmethoxy-6-trifluoromethyl-pyridin-3-yl)-N-(3-ethynyl-5-fluoro-4-methanesulfonylamino-benzyl)-acrylamide], the IC50 was 360 nM.
Take `C#Cc1cc(CNC(=O)/C=C/c2ccc(C(F)(F)F)nc2N(C)C)cc(F)c1NS(C)(=O)=O` [Example 94, 3-(2-Dimethylamino-6-trifluoromethyl-pyridin-3-yl)-N-(3-ethynyl-5-fluoro-4-methanesulfonylamino-benzyl)-acrylamide]: the IC50 was found to be 590 nM.
Regarding `CCOC(=O)C1CCN(c2nc(C(F)(F)F)ccc2/C=C/C(=O)NCc2ccc(NS(C)(=O)=O)c(F)c2)CC1` [Example 95, N-(3-Fluoro-4-methanesulfonylamino-benzyl)-3-[2-(4-ethoxycarbonyl-piperid-1-yl)-6-trifluoromethyl-pyridin-3-yl]-acrylamide], the IC50 stood at 550 nM.
To `C#Cc1cc(CNC(=O)/C=C/c2ccc(C(F)(F)F)nc2OCc2ccccc2)cc(F)c1NS(C)(=O)=O` [Example 96, N-(3-Ethynyl-5-fluoro-4-methanesulfonylamino-benzyl)-3-(2-benzyloxy 6-trifluoromethyl-pyridin-3-yl)-acrylamide] belongs 1700 nM; to `CS(=O)(=O)Nc1c(F)cc(CNC(=O)/C=C/c2ccc(C(F)(F)F)nc2N2CCCC2)cc1C#N` [Example 97, N-(3-Cyano-5-fluoro-4-methanesulfonylamino-benzyl)-3-(2-pyrrolidin-1-yl-6-trifluoromethyl-pyridin-3-yl)-acrylamide], 290 nM; to `CCCCOc1nc(C(F)(F)F)ccc1/C=C/C(=O)NCc1cc(F)c(NS(C)(=O)=O)c(C#N)c1` [Example 98, 3-(2-Butoxy-6-trifluoromethyl-pyridin-3-yl)-N-(3-cyano-5-fluoro-4-methanesulfonylamino-benzyl)-acrylamide], 190 nM.
To `COCCOc1nc(C(F)(F)F)ccc1/C=C/C(=O)NCc1cc(F)c(NS(C)(=O)=O)c(C#N)c1` [Example 99, N-(3-Cyano-5-fluoro-4-methanesulfonylamino-benzyl)-3-[2-(2-methoxy-ethoxy)-6-trifluoromethyl-pyridin-3-yl]-acrylamide] belongs 1800 nM; to `COCCNc1nc(C(F)(F)F)ccc1/C=C/C(=O)NCc1cc(F)c(NS(C)(=O)=O)c(C#N)c1` [Example 101, N-(3-Cyano-5-fluoro-4-methanesulfonylamino-benzyl)-3-[2-(2-methoxy-ethylamino)-6-trifluoromethyl-pyridin-3-yl]-acrylamide], 840 nM.
In the case of `CS(=O)(=O)Nc1c(F)cc(CNC(=O)/C=C/c2ccc(C(F)(F)F)nc2N2CCOCC2)cc1C#N` [Example 103, N-(3-Cyano-5-fluoro-4-methanesulfonylamino-benzyl)-3-(2-morpholin-4-yl-6-trifluoromethyl-pyridin-3-yl)-acrylamide], the IC50 stood at 5900 nM.
Turning to `CS(=O)(=O)Nc1ccc(CNC(=O)/C=C/c2ccc(C(F)(F)F)nc2OC2CCOC2)cc1F` (stereo not drawn) [Example 104, 3-[2-(Tetrahydro-furan-3-yloxy)-6-trifluoromethyl-pyridin-3-yl]-N-(3-fluoro-4-methanesulfonylamino-benzyl)-acrylamide], the half-maximal inhibitory concentration (IC50) was 1600 nM.
To `CS(=O)(=O)Nc1c(F)cc(CNC(=O)/C=C/c2ccc(C(F)(F)F)nc2Oc2ccccc2)cc1C#N` [Example 105, N-(3-Cyano-5-fluoro-4-methanesulfonylamino-benzyl)-3-(2-phenoxy-6-trifluoromethyl-pyridin-3-yl)-acrylamide] belongs 630 nM; to `CCC(C)Oc1nc(C(F)(F)F)ccc1/C=C/C(=O)NCc1cc(F)c(NS(C)(=O)=O)c(C#N)c1` (stereo not drawn) [Example 106, 3-(2-sec-Butoxy-6-trifluoromethyl-pyridin-3-yl)-N-(3-cyano-5-fluoro-4-methanesulfonylamino-benzyl)-acrylamide], 83 nM; to `C#Cc1cc(CNC(=O)/C=C/c2ccc(C(F)(F)F)nc2-c2ccccc2)cc(F)c1NS(C)(=O)=O` [Example 107, N-(3-Ethynyl-5-fluoro-4-methanesulfonylamino-benzyl)-3-(2-phenyl-6-trifluoromethyl-pyridin-3-yl)-acrylamide], 510 nM.
Consider `CC(C)Oc1nc(C(F)(F)F)ccc1/C=C/C(=O)NCc1ccc(NS(C)(=O)=O)c(F)c1` [Example 108, N-(3-Fluoro-4-methanesulfonylamino-benzyl)-3-(2-isopropoxy-6-trifluoromethyl-pyridin-3-yl)-acrylamide], for which the half-inhibitory concentration (IC50) was found to be 740 nM.
The same measure for `CC(C)Oc1nc(C(F)(F)F)ccc1/C=C/C(=O)NCc1cc(F)c(NS(C)(=O)=O)c(C#N)c1` [Example 109, N-(3-Cyano-5-fluoro-4-methanesulfonylamino-benzyl)-3-(2-isopropoxy-6-trifluoromethyl-pyridin-3-yl)-acrylamide]: 150 nM.
Turning to `C#Cc1cc(CNC(=O)/C=C/c2ccc(C(F)(F)F)nc2N2CCC(C(=O)OCC)CC2)cc(F)c1NS(C)(=O)=O` [Example 110, AT-(3-Ethynyl-5-fluoro-4-methansulfonylamino-benzyl)-3-[2-(4-ethoxycarbonyl-piperid-1-yl)-6-trifluoromethyl-pyridin-3-yl]-acrylamide], the IC50 came out at 580 nM.
